Reference: patent US20240067657A1, “AMIDO-SUBSTITUTED PYRIDYL COMPOUNDS AND METHODS OF USE THEREOF FOR THE TREATMENT OF HERPESVIRUSES” (Merck Sharp & Dohme LLC, priority 2020, published 2024)
Read-outs that look alike come from different tables or passages of the source.

Tests used:
[1] = target: T1, Human cytomegalovirus DNA polymerase (Human cytomegalovirus, UniProt P08546); assay: HCMV polymerase assay (AlphaLISA, IC50); type: biochemical; details: polymerase assay of Example 190
T1 construct: made in house; host or cells: SF21 insect cells (baculovirus vector)
T1 sequence (P08546 whole entry): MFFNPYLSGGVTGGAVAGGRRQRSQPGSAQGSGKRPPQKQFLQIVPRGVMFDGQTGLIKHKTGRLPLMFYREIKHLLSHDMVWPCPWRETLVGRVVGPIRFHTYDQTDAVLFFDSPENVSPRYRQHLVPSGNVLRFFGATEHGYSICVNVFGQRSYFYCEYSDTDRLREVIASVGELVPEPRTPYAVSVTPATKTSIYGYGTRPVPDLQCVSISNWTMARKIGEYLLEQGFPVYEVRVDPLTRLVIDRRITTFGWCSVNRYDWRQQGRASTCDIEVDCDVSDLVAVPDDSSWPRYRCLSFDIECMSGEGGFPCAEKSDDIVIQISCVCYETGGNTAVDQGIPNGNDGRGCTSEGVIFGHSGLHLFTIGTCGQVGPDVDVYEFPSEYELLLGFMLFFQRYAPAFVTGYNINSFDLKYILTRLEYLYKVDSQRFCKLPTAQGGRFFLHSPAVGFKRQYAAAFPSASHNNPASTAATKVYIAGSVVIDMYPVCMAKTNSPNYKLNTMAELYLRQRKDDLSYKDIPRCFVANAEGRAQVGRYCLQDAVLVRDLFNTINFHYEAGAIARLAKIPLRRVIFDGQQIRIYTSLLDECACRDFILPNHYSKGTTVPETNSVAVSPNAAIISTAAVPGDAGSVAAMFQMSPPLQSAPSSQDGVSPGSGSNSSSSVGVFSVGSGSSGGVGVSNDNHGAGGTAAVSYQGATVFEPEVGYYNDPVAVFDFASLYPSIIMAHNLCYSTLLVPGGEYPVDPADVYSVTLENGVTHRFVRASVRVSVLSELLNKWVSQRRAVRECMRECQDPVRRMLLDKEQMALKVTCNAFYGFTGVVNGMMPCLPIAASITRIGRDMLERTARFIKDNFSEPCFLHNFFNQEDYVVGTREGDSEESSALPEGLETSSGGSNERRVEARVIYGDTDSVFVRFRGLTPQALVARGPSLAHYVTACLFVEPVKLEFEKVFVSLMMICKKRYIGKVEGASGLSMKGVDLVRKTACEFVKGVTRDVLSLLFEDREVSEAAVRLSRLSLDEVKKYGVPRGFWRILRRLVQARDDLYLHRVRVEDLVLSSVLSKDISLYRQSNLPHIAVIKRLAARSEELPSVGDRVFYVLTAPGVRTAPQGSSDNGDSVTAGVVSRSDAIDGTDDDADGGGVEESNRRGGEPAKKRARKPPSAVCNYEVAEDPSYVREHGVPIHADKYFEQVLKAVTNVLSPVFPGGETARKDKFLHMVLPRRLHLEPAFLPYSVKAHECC
Method in brief: (§1)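 Baculovirus-expressed polymerase (HCMV 0.2 nM, VZV 0.4 nM final) preincubated 30 min at room temperature with compound in pH 7.5 HEPES buffer; reaction started with 1.6 nM DIG-primer/template and nM dNTPs including biotin-dUTP, run 60 min at 37° C. Incorporation detected by AlphaLISA; IC50 from 4-parameter fit.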

[2] = tested on: VZV in MeWo or MRC5 cells; assay: Viral qPCR assay VZV (V0/V1, V2/V3), EC50; type: cell-based
Method in brief: (§2)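 Infected cells added to compounds (10-point 3-fold series), ~72 h at 37 °C, then lysed; viral genomes by TaqMan qPCR against plasmid standard, normalized to PPIA in V0/V1 only, EC50 from 4-parameter fit. HCMV AD169, 0.05-0.1 pfu/cell, ± 50% FBS; VZV 0.04-0.1 pfu/cell; HSV-1 F 0.0005-0.004 pfu/cell.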

[3] = tested on: HSV-1 Strain F in Vero or MRC5 cells; assay: Viral qPCR assay HSV-1 (V0/V1, V2/V3), EC50; type: cell-based
Method in brief: as §2

[4] = target: T2, varicella zoster virus DNA polymerase (Varicella-zoster virus, UniProt P09252); assay: VZV polymerase assay (AlphaLISA, IC50); type: biochemical; details: polymerase assay of Example 190
T2 construct: made in house; host or cells: SF21 insect cells (baculovirus vector)
T2 sequence (P09252 whole entry): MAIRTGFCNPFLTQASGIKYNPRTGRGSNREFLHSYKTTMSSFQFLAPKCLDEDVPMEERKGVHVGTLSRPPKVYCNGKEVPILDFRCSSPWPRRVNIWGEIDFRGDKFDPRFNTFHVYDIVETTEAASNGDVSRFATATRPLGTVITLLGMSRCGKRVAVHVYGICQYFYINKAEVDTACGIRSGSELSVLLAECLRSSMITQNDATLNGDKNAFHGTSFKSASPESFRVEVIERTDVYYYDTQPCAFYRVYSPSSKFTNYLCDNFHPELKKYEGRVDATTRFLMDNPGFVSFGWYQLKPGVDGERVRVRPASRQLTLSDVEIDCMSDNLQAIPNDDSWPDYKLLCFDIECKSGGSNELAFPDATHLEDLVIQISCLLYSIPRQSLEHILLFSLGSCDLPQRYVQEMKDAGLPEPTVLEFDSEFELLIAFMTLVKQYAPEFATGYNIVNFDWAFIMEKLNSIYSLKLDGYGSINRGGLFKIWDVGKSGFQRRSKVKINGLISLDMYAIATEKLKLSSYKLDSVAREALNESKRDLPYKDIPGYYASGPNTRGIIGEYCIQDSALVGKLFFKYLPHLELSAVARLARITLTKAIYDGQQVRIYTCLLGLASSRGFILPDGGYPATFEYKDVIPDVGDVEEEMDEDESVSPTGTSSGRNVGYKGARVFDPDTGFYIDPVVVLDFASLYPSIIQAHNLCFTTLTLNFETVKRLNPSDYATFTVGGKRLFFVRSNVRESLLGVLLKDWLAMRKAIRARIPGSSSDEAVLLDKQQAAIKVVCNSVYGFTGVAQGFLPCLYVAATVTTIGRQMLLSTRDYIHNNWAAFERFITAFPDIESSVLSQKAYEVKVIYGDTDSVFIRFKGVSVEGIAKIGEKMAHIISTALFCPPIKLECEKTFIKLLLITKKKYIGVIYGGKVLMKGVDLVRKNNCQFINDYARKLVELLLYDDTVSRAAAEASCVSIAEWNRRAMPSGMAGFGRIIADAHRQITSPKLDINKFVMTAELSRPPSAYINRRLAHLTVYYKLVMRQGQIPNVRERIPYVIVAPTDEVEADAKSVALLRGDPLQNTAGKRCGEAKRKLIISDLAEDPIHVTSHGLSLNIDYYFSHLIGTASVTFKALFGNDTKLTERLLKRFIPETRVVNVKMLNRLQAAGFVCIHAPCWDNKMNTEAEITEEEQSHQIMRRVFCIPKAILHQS
Method in brief: as §1

[5] = tested on: HCMV Strain AD169 in MRC-5 cells; assay: Viral qPCR assay HCMV (V0/V1, V2/V3), EC50; type: cell-based
Method in brief: as §2

[6] = Human alphaherpesvirus 3, MeWo, MEWO cells, 10%, read-out: VZV Cell (EC50) MEWO 10%
[7] = Human alphaherpesvirus 1, Vero, VERO cells, 10%, read-out: HSV1 Cell (EC50) VERO 10%
[8] = Human betaherpesvirus 5, AD169, MRC5, viral qPCR assay of Example 191, read-out: HCMV Cell (EC50)
[9] = Human alphaherpesvirus 3, MRC5, MRC5 cells, 10%, read-out: VZV Cell (EC50) MRC5 10%
[10] = Human alphaherpesvirus 1, MRC5, MRC5 cells, 10%, read-out: HSV1 Cell (EC50) MRC5 10%

IC50 [1] | IC50 [4] | SMILES | EC50 [2, 6] | EC50 [3, 7] | EC50 [5, 8] | EC50 [2, 9] | EC50 [3, 10] | EC50 ([2]; MRC5 cells, 10%, read-out: VZV Cell (EC50) MRC5 10%) | EC50 ([3]; MRC5 cells, 10%, read-out: HSV1 Cell (EC50) MRC5 10%) | EC50 ([5]; viral qPCR assay of Example 191, read-out: HCMV Cell (EC50)) | EC50 ([2]; Human alphaherpesvirus 3, MeWo, read-out: VZV Cell (EC50) MEWO 10%) | EC50 ([3]; Human alphaherpesvirus 1, Vero, read-out: HSV1 Cell (EC50) VERO 10%) | EC50 ([5]; Human betaherpesvirus 5, AD169, MRC5, read-out: HCMV Cell (EC50))
0.238 µM | 0.232 µM | CS(=O)(=O)N1CCC(Oc2cc(C(=O)NCc3ccc(Cl)cc3)ncc2Cl)CC1 [Compound 151] | 1.41 µM | 1.03 µM | 5.34 µM | – | – | – | – | – | – | – | –
0.0164 µM | 0.0128 µM | O=C(NCc1ccc(Cl)cc1)c1cc(O[C@H]2CCN3C(=O)OC[C@@H]3C2)c(-c2cnn3c2COCC3)cn1 [Compound 20] | – | – | 0.132 µM | 0.343 µM | 0.235 µM | – | – | – | – | – | –
0.173 µM | 0.132 µM | O=C(NCc1ccc(Cl)cc1)c1cc(O[C@H]2CCN3C(=O)OC[C@@H]3C2)c(CCn2cccn2)cn1 [Compound 115] | 0.9 µM | 1.28 µM | 1.72 µM | – | – | – | – | – | – | – | –
0.109 µM | 0.0325 µM | CC(=O)N1CCC(Oc2cc(C(=O)NCc3ccc(Cl)cc3)ncc2-c2cn[nH]c2)CC1 [Compound 69] | 0.351 µM | 1.11 µM | 0.677 µM | – | – | – | – | – | – | – | –
0.222 µM | 0.0675 µM | CC(=O)N1CCC(Oc2cc(C(=O)NCc3ccc(Cl)cc3)ncc2-c2cnn(CCO)c2)CC1 [Compound 62] | 0.162 µM | 4.88 µM | 1.58 µM | – | – | – | – | – | – | – | –
0.00253 µM | 0.00447 µM | O=C(NCc1ccc(Cl)cc1)c1cc(O[C@H]2CCN3C(=O)OC[C@@H]3C2)c(-c2cnc(C(F)F)o2)cn1 [Compound 148] | – | – | 0.163 µM | 0.229 µM | 0.129 µM | – | – | – | – | – | –
0.161 µM | 0.0403 µM | CC(=O)N1CCC(Oc2cc(C(=O)NCc3ccc(Cl)cc3)[n+]([O-])cc2-c2cnn(C(F)F)c2)CC1 [Compound 132] | 0.51 µM | 0.401 µM | 1.32 µM | – | – | – | – | – | – | – | –
0.00949 µM | 0.00858 µM | O=C(NCc1ccc(Cl)cc1)c1cc(O[C@H]2CCN3C(=O)CC[C@@H]3C2)c(-c2cnn(C(F)F)c2)cn1 [Compound 166] | – | – | 0.565 µM | 0.241 µM | 0.37 µM | – | – | – | – | – | –
0.0325 µM | 0.0174 µM | N#Cc1ccc(CNC(=O)c2cc(O[C@H]3CCN4C(=O)OC[C@@H]4C3)c(-c3cnn(C(F)F)c3)cn2)cc1 [Compound 91] | 0.265 µM | 0.239 µM | 0.239 µM | – | – | – | – | – | – | – | –
0.00924 µM | 0.00785 µM | Cn1cc(-c2cnc(C(=O)NCc3ccc(Cl)cc3)cc2O[C@H]2CCN3C(=O)OC[C@@H]3C2)cn1 [Compound 29] | 0.0516 µM | 0.184 µM | 0.107 µM | 0.109 µM | 0.102 µM | – | – | – | – | – | –
0.0139 µM | 0.0139 µM | O=C(NCc1ccc(Cl)cc1)c1cc(O[C@H]2CCN3C(=O)OC[C@@H]3C2)c(-c2ccn(C(F)F)n2)cn1 [Compound 26] | – | 0.119 µM | 0.28 µM | 4.59 µM | ≥ 80.2 µM | – | – | – | – | – | –
0.0507 µM | 0.0217 µM | CC(=O)N1CCC(Oc2cc(C(=O)NCc3ccc(Cl)cc3)ncc2-c2cnc(C3CC3)o2)CC1 [Compound 67] | – | – | 0.613 µM | 0.706 µM | 0.66 µM | – | – | – | – | – | –
0.0141 µM | 0.0125 µM | O=C(NCc1ccc(Cl)cc1)c1cc(O[C@H]2CCN3C(=O)OC[C@@H]3C2)c(-c2cnn(CC(F)F)c2)cn1 [Compound 27] | 0.248 µM | 0.3 µM | 0.138 µM | – | – | – | – | – | – | – | –
0.0121 µM | 0.00305 µM | CC(C)(O)C1CCN(c2cnc(C(=O)NCc3ccc(Cl)cc3)cc2O[C@H]2CCN3C(=O)OC[C@@H]3C2)C1 (single isomer, unassigned) [Compound 117-2] | – | – | – | – | – | 9.1 µM | 4.78 µM | 0.211 µM | – | – | –
0.019 µM | 0.0234 µM | CSc1cnc(C(=O)NCc2ccc(Cl)cc2)cc1O[C@H]1CCN2C(=O)OC[C@@H]2C1 [Compound 147a] | – | – | 0.245 µM | 0.623 µM | 0.414 µM | – | – | – | – | – | –
0.0544 µM | 0.0311 µM | O=C(NCc1ccc(Cl)cc1)c1cc(O[C@H]2CCN3C(=O)OC[C@@H]3C2)c(CCO)cn1 [Compound 112] | 0.482 µM | 3.25 µM | 0.635 µM | – | – | – | – | – | – | – | –
0.104 µM | 0.0676 µM | Cn1cc(-c2cnc(C(=O)NCc3ccc(Cl)cc3)cc2OC2CCC(C#N)CC2)cn1 (stereo not shown) [Compound 168] | 0.59 µM | 0.529 µM | 1.11 µM | – | – | – | – | – | – | – | –
0.0069 µM | 0.00519 µM | O=C(NCc1ccc(Cl)c(F)c1)c1cc(O[C@H]2CCN3C(=O)OC[C@@H]3C2)c(-c2cnn(C(F)F)c2)cn1 [Compound 79] | – | 0.196 µM | 0.103 µM | 0.209 µM | 0.219 µM | – | – | – | – | – | –
0.0085 µM | 0.00956 µM | COC/C=C/c1cnc(C(=O)NCc2ccc(Cl)cc2)cc1O[C@H]1CCN2C(=O)OC[C@@H]2C1 [Compound 155b] | – | 0.209 µM | 0.38 µM | 0.395 µM | 0.263 µM | – | – | – | – | – | –
0.0367 µM | 0.0114 µM | O=C(NCc1ccc(Cl)cc1)c1cc(O[C@H]2CCN3C(=O)OC[C@@H]3C2)c(C2CC2O)cn1 (stereo partly shown) [Compound 154] | – | – | 0.255 µM | 0.896 µM | 0.662 µM | – | – | – | – | – | –
0.00737 µM | 0.00471 µM | O=C(NCc1ccc(Cl)cc1)c1cc(O[C@H]2CCN3C(=O)OC[C@@H]3C2)c(/C=C/CO)cn1 [Compound 155] | – | 0.419 µM | 0.204 µM | 0.251 µM | 0.243 µM | – | – | – | – | – | –
0.0053 µM | 0.00376 µM | Cc1ncc(-c2cnc(C(=O)NCc3ccc(Cl)cc3)cc2O[C@H]2CCN3C(=O)OC[C@@H]3C2)s1 [Compound 42] | 0.0485 µM | 0.0408 µM | 0.0589 µM | 0.0799 µM | 0.0517 µM | – | – | – | – | – | –
0.00986 µM | 0.0163 µM | Cn1ccc(-c2cnc(C(=O)NCc3ccc(Cl)cc3)cc2O[C@H]2CCN3C(=O)OC[C@@H]3C2)n1 [Compound 30] | 0.082 µM | 0.132 µM | 0.116 µM | 0.121 µM | 0.0782 µM | – | – | – | – | – | –
0.00444 µM | 0.00247 µM | O=C(NCc1ccc(Cl)cc1)c1cc(O[C@H]2CCN3C(=O)OC[C@@H]3C2)c(-c2cnn(C3COC3)c2)cn1 [Compound 36] | – | 0.432 µM | 0.172 µM | 0.175 µM | 0.146 µM | – | – | – | – | – | –
0.03 µM | 0.0283 µM | N#Cc1cnc(C(=O)NCc2ccc(Cl)cc2)cc1O[C@H]1CCN2C(=O)OC[C@@H]2C1 [Compound 127] | 0.239 µM | 0.234 µM | 0.349 µM | 1.11 µM | 0.8 µM | – | – | – | – | – | –
0.0388 µM | 0.0239 µM | Cn1cc(-c2cnc(C(=O)NCc3ccc(C#N)cc3)cc2O[C@H]2CCN3C(=O)OC[C@@H]3C2)cn1 (racemic) [Compound 95] | 0.241 µM | 1.93 µM | 0.181 µM | – | – | – | – | – | – | – | –
0.0509 µM | 0.038 µM | CCCn1cc(-c2cnc(C(=O)NCc3ccc(Cl)cc3)cc2O[C@H]2CCN3C(=O)OC[C@@H]3C2)cn1 (racemic) [Compound 13] | 0.601 µM | 0.389 µM | 0.363 µM | – | – | – | – | – | – | – | –
0.0705 µM | 0.0512 µM | CC(C)Cn1cc(-c2cnc(C(=O)NCc3ccc(Cl)cc3)cc2O[C@H]2CCN3C(=O)OC[C@@H]3C2)cn1 (racemic) [Compound 11] | 0.713 µM | 0.813 µM | 0.685 µM | – | – | – | – | – | – | – | –
0.062 µM | 0.0546 µM | O=C(NCc1ccc(Cl)cc1)c1cc(O[C@H]2CCN3C(=O)OC[C@@H]3C2)c(CN2CCCC(O)C2)cn1 (mixture of isomers) [Compound 140] | – | 4.32 µM | 0.855 µM | 2.56 µM | – | – | – | – | – | – | –

SMILES | IC50 [1] | IC50 [4] | EC50 [2, 6] | EC50 [3, 7] | EC50 [5, 8] | EC50 [2, 9] | EC50 [3, 10] | EC50 ([2]; MRC5 cells, 10%, read-out: VZV Cell (EC50) MRC5 10%) | EC50 ([3]; MRC5 cells, 10%, read-out: HSV1 Cell (EC50) MRC5 10%) | EC50 ([5]; viral qPCR assay of Example 191, read-out: HCMV Cell (EC50)) | EC50 ([2]; Human alphaherpesvirus 3, MeWo, read-out: VZV Cell (EC50) MEWO 10%) | EC50 ([3]; Human alphaherpesvirus 1, Vero, read-out: HSV1 Cell (EC50) VERO 10%) | EC50 ([5]; Human betaherpesvirus 5, AD169, MRC5, read-out: HCMV Cell (EC50))
C[C@@H]1CN(C)CCN1c1cc(C(=O)NCc2ccc(Cl)cc2)ncc1OCC(F)(F)F [Compound 176] | 0.218 µM | 0.115 µM | – | – | – | – | – | – | – | – | 1.24 µM | 2.18 µM | 2.48 µM
